12 molecules from patent US7018642B2 (The Procter & Gamble Company, priority 2001, dated 2006) can be followed below.

Format in all cases: cell-based
Experiment [1] deals with P. aeruginosa strain PAO1. The experiment can be described thus: Biofilm prevention screen (96-well microplate, crystal violet). To be noted: Pseudomonas aeruginosa, positive = prevention, negative = enhancement of biofilm formation, quadruplicate, read-out: average percentage reduction of biofilm formed relative to DMSO controls. The essentials: (§1)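 Three strains in 96-well round-bottom plates, compound at 250–500 μM, 160 μM or 32 μM, 16–26 h at 200 rpm (30° C Pseudomonas, 37° C staphylococcus). Staining: CV 45 min at room temperature, ethanol extraction, A586. Reported as % biofilm reduction vs DMSO, n = 4.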

Experiment [2] deals with P. fluorescens strain ATCC 13525. The experiment is described as above. The following applies: Pseudomonas fluorescens, positive = prevention, negative = enhancement of biofilm formation, quadruplicate, read-out: average percentage reduction of biofilm formed relative to DMSO controls; for inhibition at 32 µM: ATCC13525, 32 μM; for inhibition at 160 µM: ATCC13525, 160 μM; for inhibition at 390 µM: ATCC13525, 390 μM. A digest of the protocol:
as §1

The test system of experiment [3] is S. epidermidis strain ATCC 35984. The experiment is described as above. The following applies: Staphylococcus epidermidis, positive = prevention, negative = enhancement of biofilm formation, quadruplicate, read-out: average percentage reduction of biofilm formed relative to DMSO controls; for inhibition at 32 µM: ATCC35984, 32 μM; for inhibition at 160 µM: ATCC35984, 160 μM; for inhibition at 390 µM: ATCC35984, 390 μM. A digest of the protocol:
as §1

Experiment [4] concerns P. aeruginosa strain PAO1. The experiment can be described thus: Improved biofilm dispersion screen (already-formed biofilms, crystal violet). The following applies: Pseudomonas aeruginosa, 30 mM NaOH step, positive = dispersion, negative = enhancement of pre-existing biofilm, quadruplicate, read-out: average percentage reduction of biofilm relative to the two control values (dispersion). The essentials: (§2)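 Biofilms pre-grown 24 h without compound, then given fresh medium with compound at 390 μM for another 22–26 h. NaOH wash in PBS (0 mM S. epidermidis, 20 mM P. fluorescens, 30 mM P. aeruginosa; 30 min, room temperature), then crystal violet staining. Percent biofilm reduction calculated against t0 and DMSO t24 controls, quadruplicates; negative values mean enhancement.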

Experiment [5] concerns P. fluorescens strain ATCC 13525. The description is as above. To be noted: Pseudomonas fluorescens, ATCC13525, 20 mM NaOH step, positive = dispersion, negative = enhancement of pre-existing biofilm, quadruplicate, read-out: average percentage reduction of biofilm relative to the two control values (dispersion). The essentials:
as §2

In experiment [6] the test system is S. epidermidis strain ATCC 35984. Described as above. The following applies: Staphylococcus epidermidis, ATCC35984, no NaOH, positive = dispersion, negative = enhancement of pre-existing biofilm, quadruplicate, read-out: average percentage reduction of biofilm relative to the two control values (dispersion). A digest of the protocol:
as §2

Take `CCCCCCCCCCNC(=O)[C@@H]1CCCN1C(=O)OC(C)(C)C` [Compound 12, N-(tert-Butoxycarbonyl)-L-proline n-decyl amide]: the inhibition at 32 µM in experiment [1] is 6%; in experiment [2], -16%; in experiment [3], -21%. Besides, the inhibition at 160 µM in experiment [1] was -45%; in experiment [2], -42%; in experiment [3], -2%. The inhibition at 390 µM is -32% in experiment [1]; -37% in experiment [2]; 31% in experiment [3]; -30% in experiment [4]; -30% in experiment [5]; 0% in experiment [6].

Consider `CCCCCCCCNC(=O)[C@@H]1CCCN1C(=O)OC(C)(C)C` [Compound 11], for which the inhibition at 32 µM is -6% in experiment [1], -4% in experiment [2] and 10% in experiment [3]. For the same molecule, the inhibition at 160 µM in experiment [1] was -18%; in experiment [2] it was -6%; in experiment [3], -60%. Besides, the inhibition at 390 µM in experiment [1] was -15%; in experiment [2], -26%; in experiment [3], 37%; in experiment [4], -56%; in experiment [5], -23%; in experiment [6], 0%.

Turning to `CC(C)(C)OC(=O)N1CCC[C@@H]1C(=O)NCCCCCCCCCCCCNC(=O)[C@H]1CCCN1C(=O)OC(C)(C)C` [Compound 225, N-(tert-Butoxycarbonyl)-D-proline 1,12-diaminododecane bisamide], the inhibition at 32 µM is 11% in experiment [1], 14% in experiment [2] and -21% in experiment [3]. The values for the inhibition at 160 µM in experiment [1], in experiment [2] and in experiment [3] were 7%, 0% and -24%, respectively. Besides, the inhibition at 390 µM in experiment [1] was -8%; in experiment [2] it was -14%; in experiment [3] it was -39%; in experiment [4], -23%; in experiment [5] it was -85%; in experiment [6], 0%.

With `CCCCCCCCNC(=O)[C@H]1CCCCN1C(=O)CCCCCCC` [Compound 28, 1-Octanoyl-(R)-(+)-2-piperidinecarboxylic acid n-octyl amide], the inhibition at 32 µM in experiment [1] is 0%; in experiment [2] it was 21%; in experiment [3] it was -5%. Also, the inhibition at 160 µM in experiment [1] is -3%; in experiment [2], 38%; in experiment [3], -44%. Further, the inhibition at 390 µM in experiment [1] is -9%; in experiment [2] it was 26%; in experiment [3] it was -51%; in experiment [4], -25%; in experiment [5], 10%; in experiment [6], -8%.

`CCCCCCCCNC(=O)[C@H]1CCCCN1C(=O)OC(C)(C)C` [Compound 22, (R)-(+)-1-(tert-Butoxycarbonyl)-2-piperidinecarboxylic acid n-octyl amide]: the inhibition at 32 µM in experiment [1] is 0%; in experiment [2], 3%; in experiment [3] it was -6%. In addition, the inhibition at 160 µM in experiment [1] was -8%; in experiment [2] it was 27%; in experiment [3] it was -17%. Besides, the inhibition at 390 µM was -6% in experiment [1]; 25% in experiment [2]; 3% in experiment [3]; -54% in experiment [4]; 0% in experiment [5]; 0% in experiment [6].

Turning to `CCCCCCCCNC(=O)[C@H]1CCCCN1C(C)=O` [Compound 24], the inhibition at 32 µM was -12% in experiment [1], -1% in experiment [2] and -8% in experiment [3]. Moreover, the results for the inhibition at 160 µM in experiment [1], in experiment [2] and in experiment [3] were -22%, -6% and -20%, respectively. Also, the inhibition at 390 µM in experiment [1] is -11%; in experiment [2], -2%; in experiment [3], -53%; in experiment [4], -17%; in experiment [5], 0%; in experiment [6], -8%.

For the molecule `CCCCCCCCNC(=O)[C@@H]1CCCCN1C(C)=O` [Compound 21], the inhibition at 32 µM is -6% in experiment [1], 2% in experiment [2] and -15% in experiment [3]. In addition, the inhibition at 160 µM in experiment [1] is -12%; in experiment [2] it was 4%; in experiment [3], -23%. Besides, the inhibition at 390 µM in experiment [1] is -11%; in experiment [2], 20%; in experiment [3], -24%; in experiment [4], -39%; in experiment [5] it was -16%; in experiment [6] it was -8%.

Consider `CCCCCCCCNC(=O)[C@@H]1CCN1` [Compound 288], for which the values for the inhibition at 32 µM in experiment [1], in experiment [2] and in experiment [3] were 12%, -14% and 101%, respectively. Besides, the inhibition at 160 µM was 97% in experiment [1], 40% in experiment [2] and 101% in experiment [3]. Moreover, the inhibition at 390 µM in experiment [1] was 96%; in experiment [2], 59%; in experiment [3], 99%; in experiment [4], -32%; in experiment [5], -2%; in experiment [6] it was 72%.

As for `CCCCCCCCNC(=O)[C@@H]1CCCCN1` [Compound 20], the inhibition at 32 µM in experiment [1] was -16%; in experiment [2], -16%; in experiment [3] it was 1%. Further, the values for the inhibition at 160 µM in experiment [1], in experiment [2] and in experiment [3] were -22%, -14% and 1%, respectively. For the same molecule, the inhibition at 390 µM in experiment [1] was 15%; in experiment [2], 40%; in experiment [3] it was -59%; in experiment [4], 46%; in experiment [5], 25%; in experiment [6] it was 0%.

In the case of `CCCCCCNC(=O)[C@@H]1CCCN1` [Compound 30], the figures for the inhibition at 32 µM in experiment [1], in experiment [2] and in experiment [3] were 2%, 11% and -12%, respectively. Moreover, the inhibition at 160 µM in experiment [1] is 9%; in experiment [2] it was 11%; in experiment [3], -7%. For the same molecule, the inhibition at 390 µM was 18% in experiment [1]; 19% in experiment [2]; -6% in experiment [3]; 1% in experiment [4]; 20% in experiment [5]; -11% in experiment [6].

Consider `CCCCCCCCNC(=O)[C@@H]1CCCN1` [Compound 31], for which the inhibition at 32 µM in experiment [1] is -37%; in experiment [2], 3%; in experiment [3], -7%. Moreover, the values for the inhibition at 160 µM in experiment [1], in experiment [2] and in experiment [3] were -125%, 5% and -1%, respectively. In addition, the inhibition at 390 µM in experiment [1] is -44%; in experiment [2], 52%; in experiment [3] it was -27%; in experiment [4], 21%; in experiment [5], 32%; in experiment [6], -11%.

For the molecule `CCCCCCCCCCCCNC(=O)[C@H]1CCCN1` [Compound 167], the inhibition at 32 µM in experiment [1] amounted to 4%; in experiment [2], 38%; in experiment [3], 40%. The inhibition at 160 µM in experiment [1] was found to be 49%; in experiment [2], 95%; in experiment [3] it was 100%. Besides, the inhibition at 390 µM in experiment [1] was 93%; in experiment [2], 92%; in experiment [3] it was 99%; in experiment [4] it was 4%; in experiment [5], 0%; in experiment [6] it was 78%.
